Results on one compound are retold here after patent publication US20250034515A1, “Method of Production of Organoids and Uses Thereof” (Université de Strasbourg, priority 2021, published 2025).

The assay concerns Aspc-1 cells. Briefly: Viability of pancreatic cancerous 3D organoids in liquid pearls (Calcein-AM / propidium iodide, Celigo image cytometry). The class given is cell-based, human. To be noted: AsPC-1 organoids in liquid pearls; Gemcitabine 80 μM. The method, then:
FIG. 4. Effects of an ethanolic plant extract on 3D cultured cells viability. Pancreatic cancer cells seeded at 10^5 cells/mL were injected and grown in liquid pearls at a volume of 150 μL for 24 hours, then exposed to ethanolic extract #138-10D (80 μg/ml), vehicle or Gemcitabine (80 μM). After 24 hours of incubation, the cells were labeled (Calcein-AM=green-living cells and propidium iodide=red-dead cells). The composite image of the two channels was analyzed by imaging cytometry.
In a first step, medium filling the pearls is prepared using DMEMhigh glucose complete medium supplemented by 1.2% of methylcellulose solution (MC) at a ratio of 4 to 1. For spheroid generation, 150 μL of pearls medium were dispensed onto fumed silica-coated 6-well plates, then Aspc-1 cells, at a density of 10,000 cells/mL, were directly injected into each pearl. The injected pearls were then incubated in a humidified incubator at 37 C° and 5% CO2.
After 24 hours, 50 μL of complete medium containing the different extracts (final concentration 80 μg/mL) were injected into each pearl and incubated for an additional 48 hours. […] Pearls containing cancerous organoids were finally analyzed on Celigo image cytometer (Cyntellect Inc, San Diego, CA, USA).

Consider `Nc1ccn([C@@H]2O[C@H](CO)[C@@H](O)C2(F)F)c(=O)n1` [Gemcitabine], for which the “activity on AsPC-1 cells (3D cultured cells viability)” value was “only active on AsPC-1 cells at a concentration of 80 μM”.
